According to patent US6686209B2, “Reagents for detecting cannabinoids” (Lifepoint, Inc., priority 2001, dated 2004):

Tested on: antibodies against Δ^9-THC
Assay: Cross-reactivity by displacement of cannabinol-based tracer from immobilized antibody (continuous flow)
Type: binding
Details: for MAX FI (mV): sample with 25 ng/mL of unlabeled substance, cannabinol-based tracer (FIG. 10) displaced, 0 ng/mL baseline 422; for percent cross-reactivity: 25 ng/mL
Experimental: The lower binding affinity of an antibody to a particular tracer may be measured by the percent cross-reactivity of the antibody to the tracer as compared to the analyte in a sample. For example, immobilized antibodies against Δ^9-THC were bound with the cannabinol-based tracer (shown in FIG. 10) similar to the methods as described in Example VII. Different samples containing 25 ng/mL of Δ^9-THC (unlabeled), Δ^8-THC (unlabeled), unlabeled 9-carboxy-Δ^9-THC (THCA), cannabidiol (unlabeled), or unlabeled cannabinol were flowed through different columns having the antibody-tracer complex to determine the amount of cross-reactivity. The amount of tracer displaced was then compared between the different samples.
Using Δ^9-THC as the standard (i.e., Δ^9-THC set at 100% cross-reactivity) (1602/1602)), 9-carboxy-Δ^9-THC has a percent cross-reactivity of about 540% (8700/1602), and cannabinol has a percent cross-reactivity of about 79% (1266/1602). If 9-carboxy-Δ^9-THC were used as the standard (i.e., 9-carboxy-Δ^9-THC set at 100% cross-reactivity (8700/8700)), then the percent cross-reactivity for cannabinol would be about 14.5% (1266/8700). If Δ^8-THC were used as a standard (i.e., A ^8-THC set at 100% cross-reactivity (1488/1488)), then the present cross-reactivity for cannabinol would be about 85% (1266/1488).

C=C(C)[C@@H]1CCC(C)=C[C@H]1c1c(O)cc(CCCCC)cc1O [Cannabidiol, cannabidiol]
MAX FI (mV): 624 mV

CCCCCc1cc(O)c2c(c1)OC(C)(C)c1ccc(C)cc1-2 [Cannabinol, 6,6,9-trimethyl-3-pentyl-6H-dibenzo[b,d]pyran-1-ol]
percent cross-reactivity (9-carboxy-Δ^9-THC as the standard (100%)): about 14.5%
MAX FI (mV): 1266 mV
percent cross-reactivity (Δ^8-THC as the standard (100%)): about 85%
percent cross-reactivity (Δ^9-THC as the standard (100%)): about 79%

CCCCCc1cc(O)c2c(c1)OC(C)(C)[C@@H]1CCC(C(=O)O)=C[C@@H]21 [THCA, 9-carboxy-Δ^9-THC]
MAX FI (mV): 8700 mV
percent cross-reactivity (Δ^9-THC as the standard (100%)): about 540%

CCCCCc1cc(O)c2c(c1)OC(C)(C)[C@@H]1CC=C(C)C[C@@H]21 [Δ^8-THC]
MAX FI (mV): 1488 mV

CCCCCc1cc(O)c2c(c1)OC(C)(C)[C@@H]1CCC(C)=C[C@@H]21 [Δ^9-THC, Δ^9-tetrahydrocannabinol]
MAX FI (mV): 1602 mV
